Measured values published in article PMC8080777, “Discovery, optimization, and evaluation of non-bile acid FXR/TGR5 dual agonists” (Scientific Reports, 2021).

Molecular target: T1, FXR (Homo sapiens, UniProt Q96RI1)
T1 construct: host or cells: CHO cells
T1 sequence (Q96RI1 1-486): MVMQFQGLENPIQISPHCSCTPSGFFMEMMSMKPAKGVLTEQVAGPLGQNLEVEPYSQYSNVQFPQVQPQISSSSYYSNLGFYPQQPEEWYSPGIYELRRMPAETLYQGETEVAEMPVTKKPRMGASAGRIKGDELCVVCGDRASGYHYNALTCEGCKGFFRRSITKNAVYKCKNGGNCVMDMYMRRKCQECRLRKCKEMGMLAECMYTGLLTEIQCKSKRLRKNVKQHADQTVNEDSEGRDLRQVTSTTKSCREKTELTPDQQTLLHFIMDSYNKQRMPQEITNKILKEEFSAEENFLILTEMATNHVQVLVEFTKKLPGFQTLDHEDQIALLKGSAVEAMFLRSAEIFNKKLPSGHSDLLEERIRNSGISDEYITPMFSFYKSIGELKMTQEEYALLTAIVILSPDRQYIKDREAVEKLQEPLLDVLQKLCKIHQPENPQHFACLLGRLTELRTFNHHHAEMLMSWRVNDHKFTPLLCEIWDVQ
Assay: CHO cell-based FXR luciferase reporter assay (Indigo Biosciences)
Details: for EC50: 4 parameter logistic fit; for Emax: CHO

| FXR Efficacy (%) (0.1 µM) (% vs OCA 1 µM as 100%) | FXR Efficacy (%) (1 µM) (% vs OCA 1 µM as 100%) | FXR Efficacy (%) (10 µM) (10 µM, % vs OCA 1 µM as 100%) | FXR agonist activity (in words) | EC50 | Emax | Structure (SMILES) |
| --- | --- | --- | --- | --- | --- | --- |
| 12.8% | 96.6% | 130.9% |  |  |  | COC(=O)/C=C/c1cccc(N(Cc2ccc(-c3ccc(N(C)C)cc3)cc2)C(=O)C2CCCCC2)c1 [Compound 7, Fexaramine, reference compound] |
| 57.1% | 98.8% |  | strong dual agonist potencies | 190 nM | 28% | COc1cc(Cl)cc(N(CC23CCC(c4ccc(OC)c(C#N)c4)(CC2)CC3)C(=O)c2ccncc2C)c1 [Compound 20p] |
| 85.7% | 79.6% |  | strong dual agonist potencies | 79 nM | 33% | COc1ccc(C23CCC(CN(C(=O)c4ccncc4C)c4cc(Cl)cc(Cl)c4)(CC2)CC3)cc1C#N [Compound 20q] |
